The text below walks through data of patent US11866450B2, “Modulators of Cystic Fibrosis Transmembrane Conductance regulator, pharmaceutical compositions, methods of treatment, and process for making the modulators” (priority 2018, dated 2024).

For data set [1] the following is noted: snar bond, DMSO.
Data set [2] has as its target CFTR-mediated chloride transport (Homo sapiens, UniProt P13569). In kind it is cell-based. To be noted: enteroid cells incubated with test compound 18-24 hours, acute 10 μM forskolin and 300 nM Compound III; for Max. Activity: % of chloride transport with 3 μM Compound A, 3 μM Compound II and 300 nM acute Compound III triple combination control. The method in brief: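 Membrane-potential fluorescence AUC over 15 min quantified CFTR chloride transport after acute forskolin (10 μM), IBMX (100 μM) and Compound III (300 nM) in chloride-free buffer. Human enteroid cells were pretreated with compound for 18–24 h; % Activity is relative to 3 μM Compound A + 3 μM Compound II + 300 nM Compound III.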

Structures are written as SMILES. Read-outs that look alike come from different tables or passages of the source.

As usually defined, the EC50 is the midpoint of the concentration-response curve.

CFTR-mediated chloride transport, sequence (P13569 whole entry, looked up): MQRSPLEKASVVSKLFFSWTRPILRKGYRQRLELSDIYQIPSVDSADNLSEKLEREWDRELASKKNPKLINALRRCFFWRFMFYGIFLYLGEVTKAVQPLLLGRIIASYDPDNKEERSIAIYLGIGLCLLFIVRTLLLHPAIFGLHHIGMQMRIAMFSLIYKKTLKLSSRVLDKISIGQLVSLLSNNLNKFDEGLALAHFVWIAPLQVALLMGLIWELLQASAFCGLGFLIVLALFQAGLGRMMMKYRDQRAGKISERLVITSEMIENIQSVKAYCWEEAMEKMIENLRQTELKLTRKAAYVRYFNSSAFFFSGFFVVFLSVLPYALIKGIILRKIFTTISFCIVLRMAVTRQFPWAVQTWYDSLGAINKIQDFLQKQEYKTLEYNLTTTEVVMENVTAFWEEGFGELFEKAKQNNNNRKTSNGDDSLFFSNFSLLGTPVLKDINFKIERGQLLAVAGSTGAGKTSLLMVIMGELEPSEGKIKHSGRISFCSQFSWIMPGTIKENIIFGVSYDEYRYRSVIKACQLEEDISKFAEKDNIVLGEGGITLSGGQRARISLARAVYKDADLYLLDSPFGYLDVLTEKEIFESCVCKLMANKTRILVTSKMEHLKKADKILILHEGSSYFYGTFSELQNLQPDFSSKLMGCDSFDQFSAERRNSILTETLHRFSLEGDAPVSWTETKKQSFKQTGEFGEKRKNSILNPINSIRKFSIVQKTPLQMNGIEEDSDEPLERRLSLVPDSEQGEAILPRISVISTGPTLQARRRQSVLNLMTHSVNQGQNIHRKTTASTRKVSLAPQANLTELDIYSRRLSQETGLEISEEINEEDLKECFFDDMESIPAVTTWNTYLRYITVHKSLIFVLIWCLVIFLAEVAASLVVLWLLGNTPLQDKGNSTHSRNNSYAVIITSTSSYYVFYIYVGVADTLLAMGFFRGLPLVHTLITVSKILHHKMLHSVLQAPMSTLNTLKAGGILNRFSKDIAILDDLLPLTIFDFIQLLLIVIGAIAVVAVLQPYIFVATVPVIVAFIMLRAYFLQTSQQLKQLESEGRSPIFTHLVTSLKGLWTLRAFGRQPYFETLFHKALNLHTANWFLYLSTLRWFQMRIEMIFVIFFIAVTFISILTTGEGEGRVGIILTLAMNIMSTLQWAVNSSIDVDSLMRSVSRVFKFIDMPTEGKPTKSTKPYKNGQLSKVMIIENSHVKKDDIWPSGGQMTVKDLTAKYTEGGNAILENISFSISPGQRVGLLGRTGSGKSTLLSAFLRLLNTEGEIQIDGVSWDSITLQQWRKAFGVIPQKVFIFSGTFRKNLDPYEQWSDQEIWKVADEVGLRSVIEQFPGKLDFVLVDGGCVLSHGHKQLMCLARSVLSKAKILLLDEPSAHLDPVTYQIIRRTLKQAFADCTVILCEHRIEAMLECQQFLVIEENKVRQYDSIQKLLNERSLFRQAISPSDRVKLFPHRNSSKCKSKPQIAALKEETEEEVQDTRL

For `CC1(C)CC2CCCn3ccc(n3)S(=O)(=O)NC(=O)c3ccc(-n4ccc(OCCC5(C(F)(F)F)CC5)n4)nc3N1C2` (stereo not drawn) [Compound 32, 20,20-dimethyl-4-(3-{2-[1-(trifluoromethyl)cyclopropyl]ethoxy}-1H-pyrazol-1-yl)-10λ^6-thia-1,3,9,14,22-pentaazatetracyclo[16.2.1.111,14.02,7]docosa-2(7),3,5,11(22),12-pentaene-8,10,10-trione], the ring closure, yield after HPLC in data set [1] (from CC(C)(C)OC(=O)N1CC(CCCn2ccc(S(=O)(=O)NC(=O)c3ccc(-n4ccc(OCCC5(C(F)(F)F)CC5)n4)nc3Cl)n2)CC1(C)C, 14-membered ring, K2CO3/CsF/3A MS, 55.3 mM, 130.0 °C, 2 steps) was determined as 40%. For the same molecule, in data set [2], the EC50 is below 1000 nM and the “Max. Activity” value is “+++ (+++ is >60%)”.
On to `CC1(C)CCC2CCCCNc3cccc(n3)S(=O)(=O)NC(=O)c3ccc(-n4ccc(OCCC5(C(F)(F)F)CC5)n4)nc3N21` (stereo not drawn) [Compound 37, 12,12-dimethyl-8-(3-{2-[1-(trifluoromethyl)cyclopropyl]ethoxy}-1H-pyrazol-1-yl)-2λ^6-thia-3,9,11,20,25-pentaazatetracyclo[19.3.1.05,10.011,15]pentacosa-1(24),5,7,9,21(25),22-hexaene-2,2,4-trione], for which the ring closure, yield after HPLC in data set [1] (from CC1(C)CCC(CCCCNc2cccc(S(=O)(=O)NC(=O)c3ccc(-n4ccc(OCCC5(C(F)(F)F)CC5)n4)nc3Cl)n2)N1, 15-membered ring, K2CO3/CsF, 85.3 mM, 150.0 °C) turned out to be 25%. Besides, in data set [2], the EC50 was below 1000 nM and the “Max. Activity” value is “+ (+ is <30%)”.
Turning to `CC1(C)CC2CCCNc3cccc(n3)S(=O)(=O)NC(=O)c3ccc(-n4ccc(O)n4)nc3N1C2` (stereo not drawn) [Compound 38, 8-(3-hydroxy-1H-pyrazol-1-yl)-12,12-dimethyl-2λ^6-thia-3,9,11,18,23-pentaazatetracyclo[17.3.1.111,14.05,10]tetracosa-1(22),5,7,9,19(23),20-hexaene-2,2,4-trione], the ring closure, yield after HPLC in data set [1] (from CC1(C)CC(CCCNc2cccc(S(=O)(=O)NC(=O)c3ccc(-n4ccc(O)n4)nc3Cl)n2)CN1, 15-membered ring, CsF/K2CO3/3A MS, 39.3 mM, 140.0 °C) was 17%. Moreover, in data set [2], the EC50 is above 3000 nM and the “Max. Activity” value is reported as “++ (++ is 30-60%)”.
In turn, `CC1(C)CC2CCCNc3cccc(n3)S(=O)(=O)NC(=O)c3ccc(-n4ccc(OCCC(C5CC5)C5CC5)n4)nc3N1C2` (stereo not drawn) [Compound 43, 8-[3-(3,3-dicyclopropylpropoxy)-1H-pyrazol-1-yl]-12,12-dimethyl-2λ^6-thia-3,9,11,18,23-pentaazatetracyclo[17.3.1.111,14.05,10]tetracosa-1(22),5,7,9,19(23),20-hexaene-2,2,4-trione] returned a ring closure, yield after HPLC in data set [1] (from CC1(C)CC(CCCNc2cccc(S(=O)(=O)NC(=O)c3ccc(-n4ccc(OCCC(C5CC5)C5CC5)n4)nc3Cl)n2)CN1, 15-membered ring, K2CO3/CsF/3A MS, 26.4 mM, 130.0 °C, 2 steps) of 55%. Also, in data set [2], the half-maximal effective concentration (EC50) was below 1000 nM and the “Max. Activity” value is recorded as “+++ (+++ is >60%)”.
In data set [1] (from CC(C)(C)OC(=O)N1CC(OCCNc2cccc(S(=O)(=O)NC(=O)c3ccc(-n4ccc(OCCC5(C(F)(F)F)CC5)n4)nc3Cl)n2)CC1(C)C, 15-membered ring, HCl (Boc off), K2CO3/CsF/3A MS, 62.3 mM, 150.0 °C, 2 steps), `CC1(C)CC2CN1c1nc(-n3ccc(OCCC4(C(F)(F)F)CC4)n3)ccc1C(=O)NS(=O)(=O)c1cccc(n1)NCCO2` (stereo not drawn) [Compound 69, 12,12-dimethyl-8-(3-{2-[1-(trifluoromethyl)cyclopropyl]ethoxy}-1H-pyrazol-1-yl)-15-oxa-2λ^6-thia-3,9,11,18,23-pentaazatetracyclo[17.3.1.111,14.05,10]tetracosa-1(22),5(10),6,8,19(23),20-hexaene-2,2,4-trione] had a ring closure, yield after HPLC of 61%. In data set [2], the EC50 was below 1000 nM and the “Max. Activity” value is “+++ (+++ is >60%)”.
Turning to `Cc1nn2cc1S(=O)(=O)NC(=O)c1ccc(-n3ccc(OCCC4(C(F)(F)F)CC4)n3)nc1N1CC(CCCC2)CC1(C)C` (stereo not drawn) [Compound 71, 12,21,21-trimethyl-4-(3-{2-[1-(trifluoromethyl)cyclopropyl]ethoxy}-1H-pyrazol-1-yl)-10λ^6-thia-1,3,9,13,14-pentaazatetracyclo[17.2.1.111,14.02,7]tricosa-2,4,6,11(23),12-pentaene-8,10,10-trione], the ring closure, yield after HPLC in data set [1] (from Cc1nn(CCCCC2CNC(C)(C)C2)cc1S(=O)(=O)NC(=O)c1ccc(-n2ccc(OCCC3(C(F)(F)F)CC3)n2)nc1Cl, 15-membered ring, K2CO3/CsF, 130.1 mM, 150.0 °C) worked out at 50%. Moreover, in data set [2], the EC50 was above 3000 nM and the “Max. Activity” value is recorded as “+ (+ is <30%)”.
